In brackets after ≈: the same amount, converted by molar mass.
Experiments:
HK-2 = test: Cytotoxicity against human HK-2 cells assessed as cell viability incubated for 72 hrs by CCK-8 assay; type: cell-based; details: hk-2, 72 h
Pseudomonas aeruginosa [1] = test: Antibacterial activity against Pseudomonas aeruginosa PAO1 assessed as inhibition of bacterial growth incubated for 24 hrs by broth microdilution method; type: functional; details: read-out: MIC100
Escherichia coli = test: Antibacterial activity against Escherichia coli assessed as inhibition of bacterial growth incubated for 24 hrs by broth microdilution method; type: functional; details: read-out: MIC100
Klebsiella pneumoniae = test: Antibacterial activity against Klebsiella pneumoniae assessed as inhibition of bacterial growth incubated for 24 hrs by broth microdilution method; type: functional; details: read-out: MIC100
Acinetobacter baumannii = test: Antibacterial activity against Acinetobacter baumannii assessed as inhibition of bacterial growth incubated for 24 hrs by broth microdilution method; type: functional; details: read-out: MIC100
Pseudomonas aeruginosa [2] = test: Antibacterial activity against Pseudomonas aeruginosa assessed as inhibition of bacterial growth incubated for 24 hrs by broth microdilution method; type: functional; details: read-out: MIC100
Moraxella catarrhalis = test: Antibacterial activity against Moraxella catarrhalis assessed as inhibition of bacterial growth incubated for 24 hrs by broth microdilution method; type: functional; details: read-out: MIC100

SMILES	Activity (HK-2)	MIC (Pseudomonas aeruginosa [1]) [µg/mL]	MIC (Escherichia coli) [µg/mL]	MIC (Klebsiella pneumoniae) [µg/mL]	MIC (Acinetobacter baumannii) [µg/mL]	MIC (Pseudomonas aeruginosa [2]) [µg/mL]	MIC (Moraxella catarrhalis) [µg/mL]
CC[C@H](C)CCCCC(=O)N[C@@H](CCN)C(=O)N[C@H](C(=O)N[C@@H](CCN)C(=O)N[C@H]1CCNC(=O)[C@H]([C@@H](C)O)NC(=O)[C@H](CCN)NC(=O)[C@H](CCN)NC(=O)[C@H](CC(C)C)NC(=O)[C@@H](Cc2ccccc2)NC(=O)[C@H](CCN)NC1=O)[C@@H](C)OC(=O)[C@@H](N)CCC(N)=O	Non-Toxic						
CC[C@H](C)CCCCC(=O)N[C@@H](CCN)C(=O)N[C@H](C(=O)N[C@@H](CCN)C(=O)N[C@H]1CCNC(=O)[C@H]([C@@H](C)O)NC(=O)[C@H](CCN)NC(=O)[C@H](CCN)NC(=O)[C@H](CC(C)C)NC(=O)[C@@H](Cc2ccccc2)NC(=O)[C@H](CCN)NC1=O)[C@@H](C)OC(=O)[C@@H](N)CCC(=O)O	Non-Toxic						
CC(C)CCCCC(=O)N[C@@H](CCN)C(=O)N[C@@H](CC(C)C)C(=O)N[C@@H](CCN)C(=O)N[C@H]1CCNC(=O)[C@H]([C@@H](C)O)NC(=O)[C@H](CCN)NC(=O)[C@H](CCN)NC(=O)[C@H](CC(C)C)NC(=O)[C@@H](Cc2ccccc2)NC(=O)[C@H](CCN)NC1=O		2 (≈ 1.66 µM)	1 (≈ 0.832 µM)	1 (≈ 0.832 µM)	2 (≈ 1.66 µM)	0.25 (≈ 0.208 µM)	8 (≈ 6.66 µM)
CC(=O)O[C@H](C)[C@H](NC(=O)[C@H](CCN)NC(=O)CCCCC(C)C)C(=O)N[C@@H](CCN)C(=O)N[C@H]1CCNC(=O)[C@H]([C@@H](C)O)NC(=O)[C@H](CCN)NC(=O)[C@H](CCN)NC(=O)[C@H](CC(C)C)NC(=O)[C@@H](Cc2ccccc2)NC(=O)[C@H](CCN)NC1=O		16 (≈ 13 µM)	4 (≈ 3.25 µM)	> 32	8 (≈ 6.5 µM)	0.5 (≈ 0.406 µM)	16 (≈ 13 µM)
CCCCCCCC(=O)N[C@@H](CCN)C(=O)N[C@H](C(=O)N[C@@H](CCN)C(=O)N[C@H]1CCNC(=O)[C@H](C(C)C)NC(=O)[C@H](CCN)NC(=O)[C@H](CCN)NC(=O)[C@H](CC(C)C)NC(=O)[C@@H](Cc2ccccc2)NC(=O)[C@H](CCN)NC1=O)[C@@H](C)O		4 (≈ 3.37 µM)	8 (≈ 6.74 µM)	4 (≈ 3.37 µM)	1 (≈ 0.842 µM)	0.5 (≈ 0.421 µM)	4 (≈ 3.37 µM)
CC(C)CCCCC(=O)N[C@@H](CCN)C(=O)N[C@H](C(=O)N[C@@H](CCN)C(=O)N[C@H]1CCNC(=O)[C@H]([C@@H](C)O)NC(=O)[C@H](CCN)NC(=O)[C@H](CCN)NC(=O)[C@H](CC(C)C)NC(=O)[C@@H](Cc2ccccc2)NC(=O)[C@H](CCN)NC1=O)[C@H](C)OC(=O)[C@@H](N)CCC(N)=O		2 (≈ 1.52 µM)	0.5 (≈ 0.379 µM)	2 (≈ 1.52 µM)	0.06 (≈ 0.0455 µM)	0.25 (≈ 0.19 µM)	> 32
CCCCCCCC(=O)N[C@@H](CCN)C(=O)N[C@H](C(=O)N[C@@H](CCN)C(=O)N[C@H]1CCNC(=O)[C@H](CCN)NC(=O)[C@H](CCN)NC(=O)[C@H](CCN)NC(=O)[C@H](CC(C)C)NC(=O)[C@@H](Cc2ccccc2)NC(=O)[C@H](CCN)NC1=O)[C@@H](C)O		64 (≈ 53.8 µM)	8 (≈ 6.73 µM)	> 32	0.25 (≈ 0.21 µM)	8 (≈ 6.73 µM)	8 (≈ 6.73 µM)
CCCCCCCC(=O)N[C@@H](CCN)C(=O)NC(Cc1ccc(O)cc1)C(=O)N[C@@H](CCN)C(=O)N[C@H]1CCNC(=O)[C@H]([C@@H](C)O)NC(=O)[C@H](CCN)NC(=O)[C@H](CCN)NC(=O)[C@H](CC(C)C)NC(=O)[C@@H](Cc2ccccc2)NC(=O)[C@H](CCN)NC1=O (single isomer, unassigned)		32 (≈ 25.6 µM)	16 (≈ 12.8 µM)	> 64	> 64	2 (≈ 1.6 µM)	8 (≈ 6.39 µM)
CC(C)CCCCC(=O)N[C@@H](CCN)C(=O)N[C@H](C(=O)N[C@@H](CCN)C(=O)N[C@H]1CCNC(=O)[C@H]([C@@H](C)O)NC(=O)[C@H](CCN)NC(=O)[C@H](CCN)NC(=O)[C@H](CC(C)C)NC(=O)[C@@H](Cc2ccccc2)NC(=O)[C@H](CCN)NC1=O)C(C)C		4 (≈ 3.37 µM)	8 (≈ 6.74 µM)	> 16	16 (≈ 13.5 µM)	0.5 (≈ 0.421 µM)	8 (≈ 6.74 µM)
